Source: US10493077B2, “Fused imidazo-piperidine JAK inhibitor compound” (THERAVANCE BIOPHARMA R&D IP, LLC, priority 2017, dated 2019)

How the values were obtained:
EPHB6 = molecular target: T1, EPHB6 (Homo sapiens, UniProt O15197); assay: Kinome screen, EPHB6; format: binding; conditions: screened at 1 μM
T1 construct: made in house; host or cells: T7 phage in E. coli (BL21-derived) or HEK-293
Method: (§1) Kinase-tagged T7 phage strains were grown in parallel in 24-well blocks in an E. coli host derived from the BL21 strain. E. coli were grown to log-phase and infected with T7 phage from a frozen stock (multiplicity of infection=0.4) and incubated with shaking at 32° C. until lysis (90-150 minutes). The lysates were centrifuged (6,000×g) and filtered (0.2 μm) to remove cell debris. The remaining kinases were produced in HEK-293 cells and subsequently tagged with DNA for qPCR detection.
(§2) Streptavidin-coated magnetic beads were treated with biotinylated small molecule ligands for 30 minutes at room temperature to generate affinity resins for kinase assays. The liganded beads were blocked with excess biotin and washed with blocking buffer (SeaBlock (Pierce), 1% BSA, 0.05% Tween 20, 1 mM DTT) to remove unbound ligand and to reduce non-specific phage binding. […] Test compounds were prepared as 40× stocks in 100% DMSO and directly diluted into the assay. All reactions were performed in polypropylene 384-well plates in a final volume of 0.04 ml. […] The beads were then re-suspended in elution buffer (1×PBS, 0.05% Tween 20, 0.5 μM non-biotinylated affinity ligand) and incubated at room temperature with shaking for 30 minutes. The kinase concentration in the eluates was measured by qPCR.

IL-6 induced pSTAT3 = assay: Pharmacodynamic assay: inhibition of IL6-induced pSTAT3 in rats; format: in vivo, rat; conditions: 50 μg intravitreal, suspension formulation, 3 day pre-treatment prior to IL-6 challenge, female Lewis rats
Method: The ability of a single intravitreal administration of test compound to inhibit IL-6 induced pSTAT3 was measured in rat retina/choroid homogenates.
A suspension formulation was prepared by combining compound 1 of Example 2, with 0.5% hydroxypropyl methylcellulose (HPMC E5 LV), 0.02% Tween 80, and 9 mg/mL sodium chloride in purified water to attain a target concentration of 10 mg/mL.
Female Lewis rats were intravitreally (IVT) dosed (5 μL per eye) with the suspension formulation. Three days later, IL-6 (Peprotech; 0.1 mg/mL; 5 μL per eye) or vehicle was intravitreally administered to induce pSTAT3. Ocular tissues were dissected one hour after the second IVT injection with IL-6. The retina/choroid tissues were homogenized and pSTAT3 levels were measured using an ELISA (Cell Signaling Technology). The percent inhibition of IL-6-induced pSTAT3 was calculated in comparison to the vehicle/vehicle and vehicle/IL-6 groups. Inhibition of greater than 100% reflects a reduction of pSTAT3 levels to below those observed in the vehicle/vehicle group.

GSK3B = molecular target: T2, GSK3B (Homo sapiens, UniProt P49841); assay: Kinome screen, GSK3B; format: binding; conditions: screened at 1 μM
T2 construct: made in house; host or cells: T7 phage in E. coli (BL21-derived) or HEK-293
T2 sequence (P49841 whole entry): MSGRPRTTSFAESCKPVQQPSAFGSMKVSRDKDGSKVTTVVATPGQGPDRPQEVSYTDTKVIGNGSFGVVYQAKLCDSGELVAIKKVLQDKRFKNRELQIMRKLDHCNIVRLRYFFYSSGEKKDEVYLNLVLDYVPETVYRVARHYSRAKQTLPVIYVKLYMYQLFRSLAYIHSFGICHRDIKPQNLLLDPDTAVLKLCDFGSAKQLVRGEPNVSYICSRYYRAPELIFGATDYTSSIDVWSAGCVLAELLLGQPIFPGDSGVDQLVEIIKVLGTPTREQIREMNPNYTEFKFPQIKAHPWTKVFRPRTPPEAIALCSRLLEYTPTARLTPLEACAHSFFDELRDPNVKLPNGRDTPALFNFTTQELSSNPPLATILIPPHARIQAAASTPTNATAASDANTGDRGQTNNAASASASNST
Method: as §1, §2

[1] = test system: BEAS-2B human lung epithelial cells; assay: CellTiter-Glo cell viability/cytotoxicity assay; format: cell-based; conditions: BEAS-2B cells, 48 h, concentration at 15% inhibition threshold
Method: A CellTiter-Glo luminescent cell viability/cytotoxicity assay was carried out in BEAS-2B human lung epithelial cells (ATCC) under the normal growth condition.
Cells were grown at 37° C. in a 5% CO2 humidified incubator in 50% DMEM/50% F-12 medium (Life Technologies) supplemented with 10% FBS (Hyclone), 100 U/mL penicillin, 100 μg/mL streptomycin (Life Technologies), and 2 mM GlutaMAX (Life Technologies). On day 1 of the assay, cells were seeded at a 500 cells/well density in white 384-well tissue culture plates (Corning) with 25 μL medium, and were allowed to adhere overnight in the incubator. On day 2 of the assay, 5 μL of medium containing dose-responses of test compounds was added, and incubated at 37° C. for 48 h. 30 μL of CellTiter-Glo detection solution (Promega) was subsequently added, mixed on an orbital shaker for 5 min, and incubated for additional 10 min before being read on the EnVision reader. Luminescence signals were recorded and percent DMSO control values were calculated.
For dose-response analysis, percent DMSO control data were plotted vs. compound concentrations to derive dose-response curves by line connecting each data point. The concentration at which each curve crosses the 15% inhibition threshold is defined as CC15.

KIT = molecular target: T3, KIT (Homo sapiens, UniProt P10721); assay: Kinome screen, KIT; format: binding; conditions: screened at 1 μM
T3 construct: made in house; host or cells: T7 phage in E. coli (BL21-derived) or HEK-293
T3 sequence (P10721 26-976): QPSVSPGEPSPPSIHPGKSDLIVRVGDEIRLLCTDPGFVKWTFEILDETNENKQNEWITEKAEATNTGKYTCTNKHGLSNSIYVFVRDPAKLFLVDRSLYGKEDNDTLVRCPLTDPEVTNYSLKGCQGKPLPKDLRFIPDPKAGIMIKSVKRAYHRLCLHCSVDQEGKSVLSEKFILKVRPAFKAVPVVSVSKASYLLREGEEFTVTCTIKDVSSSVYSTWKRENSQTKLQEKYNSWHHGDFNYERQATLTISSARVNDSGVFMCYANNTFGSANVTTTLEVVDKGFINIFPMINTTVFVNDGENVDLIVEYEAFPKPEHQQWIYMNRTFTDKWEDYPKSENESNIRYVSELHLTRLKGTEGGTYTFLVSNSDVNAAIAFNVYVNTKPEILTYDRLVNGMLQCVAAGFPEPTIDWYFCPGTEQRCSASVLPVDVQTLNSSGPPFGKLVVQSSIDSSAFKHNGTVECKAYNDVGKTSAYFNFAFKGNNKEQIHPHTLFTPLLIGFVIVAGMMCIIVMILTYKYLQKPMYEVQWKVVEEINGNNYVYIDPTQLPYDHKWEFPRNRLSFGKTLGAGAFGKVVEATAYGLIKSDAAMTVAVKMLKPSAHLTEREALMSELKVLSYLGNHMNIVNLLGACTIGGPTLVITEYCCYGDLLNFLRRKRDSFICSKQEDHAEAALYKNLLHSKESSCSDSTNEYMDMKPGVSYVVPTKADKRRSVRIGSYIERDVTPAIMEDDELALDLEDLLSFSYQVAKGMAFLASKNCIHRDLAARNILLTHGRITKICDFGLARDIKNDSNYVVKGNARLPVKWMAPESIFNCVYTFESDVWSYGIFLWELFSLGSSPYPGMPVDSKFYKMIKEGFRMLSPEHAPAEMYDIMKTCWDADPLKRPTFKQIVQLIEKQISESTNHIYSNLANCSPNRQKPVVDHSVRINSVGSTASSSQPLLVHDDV
Method: as §1, §2

T1 sequence (O15197 32-1021): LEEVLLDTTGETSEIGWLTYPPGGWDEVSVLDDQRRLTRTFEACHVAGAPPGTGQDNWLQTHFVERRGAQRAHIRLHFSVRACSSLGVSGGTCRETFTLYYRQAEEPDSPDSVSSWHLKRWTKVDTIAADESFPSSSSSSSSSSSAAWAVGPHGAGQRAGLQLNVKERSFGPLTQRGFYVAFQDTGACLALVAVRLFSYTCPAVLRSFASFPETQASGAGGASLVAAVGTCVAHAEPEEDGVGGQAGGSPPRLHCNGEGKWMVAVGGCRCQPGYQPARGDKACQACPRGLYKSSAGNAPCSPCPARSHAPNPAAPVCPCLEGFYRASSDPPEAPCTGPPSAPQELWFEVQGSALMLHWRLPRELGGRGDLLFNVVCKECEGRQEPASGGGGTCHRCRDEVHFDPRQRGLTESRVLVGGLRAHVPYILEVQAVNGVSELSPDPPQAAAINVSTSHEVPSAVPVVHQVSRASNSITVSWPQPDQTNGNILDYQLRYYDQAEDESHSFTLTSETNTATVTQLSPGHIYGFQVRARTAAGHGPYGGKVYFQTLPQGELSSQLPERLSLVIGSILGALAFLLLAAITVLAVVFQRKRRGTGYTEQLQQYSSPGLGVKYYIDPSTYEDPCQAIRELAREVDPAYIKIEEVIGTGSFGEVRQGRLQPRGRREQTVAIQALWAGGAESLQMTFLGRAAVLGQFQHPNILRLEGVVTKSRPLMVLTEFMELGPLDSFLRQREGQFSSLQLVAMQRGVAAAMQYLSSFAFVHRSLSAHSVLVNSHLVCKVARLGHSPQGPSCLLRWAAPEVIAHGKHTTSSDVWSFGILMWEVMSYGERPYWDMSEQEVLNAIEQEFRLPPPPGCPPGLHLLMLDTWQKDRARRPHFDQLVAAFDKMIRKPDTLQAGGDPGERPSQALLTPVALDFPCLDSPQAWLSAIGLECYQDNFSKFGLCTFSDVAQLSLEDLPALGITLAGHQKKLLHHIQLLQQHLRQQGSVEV

SMILES: CCc1cc(O)c(F)cc1-c1cc(F)c2c(-c3nc4c([nH]3)CCN(C(=O)CN3CCOCC3)C4)n[nH]c2c1 [Compound 1, 1-(2-(6-(2-ethyl-5-fluoro-4-hydroxyphenyl)-4-fluoro-1H-indazol-3-yl)-1,4,6,7-tetrahydro-5H-imidazo[4,5-c]pyridin-5-yl)-2-morpholinoethan-1-one]
- inhibition at 1 µM (EPHB6): 88%
- inhibition of IL-6-induced pSTAT3 in retina/choroid tissues (IL-6 induced pSTAT3): 116%
- inhibition at 1 µM (GSK3B): 31%
- CC15 [1]: 3.16 µM
- inhibition at 1 µM (KIT): 87%
